Test results: patent US7094758B2, “Apoptotic compounds” (Board of Regents, The University of Texas System, priority 2000, dated 2006)

What was measured:
Wap-ras tumors = experiment: In vivo therapy in the WAP-RAS transgenic model; conditions: Wap-ras transgenic mice with well developed tumors; peptoid 20 mpk po, paclitaxel 5 mpk ip
Protocol: Peptoid and Paclitaxel combination efficacy is also evaluated in the Wap-ras transgenic model.
Peptoid (20 mpk/dosing po) was dissolved in 20% hydroxyl-propyl-betacyclodexatrin (Vehicle I). 0.2 ml of peptoid solution is the oral dosing volume. Paclitaxel (5 mpk/dosing ip) was dissolved in a diluted ethanol/cremophor EL solution (vehicle II) and the i.p. dosing volume for paclitaxel was 0.1 ml.
The mice are weighed, randomized, and ear-marked on Day 0. Peptoid treatment and Vehicle I treatment began on Day 1 and continued every 12 hours until Day 21. Paclitaxel and Vehicle II treatments are started on Day 4 and continued daily on Day 5, 6, and 7.

[1] = biological target: T1, second BIR (baculoviral IAP repeat) motif of XIAP (Homo sapiens, UniProt P98170); experiment: In vitro IAP (BIR) binding/interaction assay, GST-mediated pull-down
T1 construct: recombinant IAP fragment (second BIR (baculoviral IAP repeat) motif of XIAP)
Protocol: Interaction between AV peptoids and IAPs was examined by GST-mediated pull-down assays. Approximately 0.4 mg of a recombinant IAP fragment (second BIR (baculoviral IAP repeat) motif of XIAP) was bound to […] of glutathione resin as a GST-fusion protein and incubated with 0.5 mg of radiolabeled AV peptoids at room temperature. After extensive washing with an assay buffer containing 25 mM Tris, pH 8.0, 150 mM NaCl, and 2 mM dithiothreitol (DTT), the complex was eluted with 5 mM reduced glutathione and visualized by SDS-PAGE with Coomassie staining.
Smac stimulates activation of procaspase-3 by relieving the IAP inhibition^20, 21. All members of the IAP family contain at least one BIR (baculoviral IAP repeat) motif and many contain three^9.

procaspase-3 = experiment: Hela cell extracts: radiolabeled procaspase-3 activation assay; assay type: biochemical; conditions: S-100 extracts of HeLa cells, 35S-labeled caspase-3; AV peptoids (50 nM), Smac peptides 30–1000 mM; 30° C., 1 hr
Protocol: […] S-100 extracts of HeLa cells were incubated alone (Control), or with AV peptoids (50 nM) nM, or with […] of N-terminal Smac peptides in different lengths. The reactions were carried out with the addition of 1 mM DATP, 1 mM additional MgCl2, 0.2 mg/ml horse heart cytochrome c, and […] of in vitro translated, ^35S-labeled caspase-3 in a final volume of […]. The reaction mixtures were incubated at 30° C. for 1 hr followed by electrophoresis on a 15% PAGE gel. The gel was subsequently transferred onto a nitrocellulose filter and exposed to a phosphoimaging cassette.

T1 sequence (P98170 124-240 limits assumed): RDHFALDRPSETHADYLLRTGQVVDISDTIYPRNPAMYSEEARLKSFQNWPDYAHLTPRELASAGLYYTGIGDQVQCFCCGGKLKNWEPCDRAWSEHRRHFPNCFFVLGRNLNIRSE

CC(=O)O[C@H]1C(=O)[C@@]2(C)[C@H]([C@H](OC(=O)c3ccccc3)[C@]3(O)C[C@H](OC(=O)[C@H](O)[C@@H](NC(=O)c4ccccc4)c4ccccc4)C(C)=C1C3(C)C)[C@]1(OC(C)=O)CO[C@@H]1C[C@@H]2O [Paclitaxel]
tumor response to treatment, single agent (Wap-ras tumors): do not respond

NH2-KQAIPVA-COOH (H-KQAIPVA-OH) [Smac-7R]
IAP Binding ([1]; Table 4, GST pull-down with radiolabeled AV peptoid, grades 0, ++, +++, key not given): 0
activation of procaspase-3 (procaspase-3): did not

B1: Smac: Second mitochondria-derived activator of caspases (DIABLO); mature form contains 184 amino acids (protein, UniProt Q9NR28 22-239, looked up)
Diablo IAP-binding …: LCVPVVANFKKRCFSELIRPWHKTVTIGFGVTLCAVPIAQKSEPHSLSSEALMRRAVSLVTDSTSTFLSQTTYALIEAITEYTKAVYTLTSLYRQYTSLLGKMNSEEEDEVWQVIIGARAEMTSKHQEYLKLETTWMTAVGLSEMAAEAAYQTGADQASITARNHIQLVKLQVEEVHQLSRKAETKLAEAQIEELRQKTQEEGEERAESEQEAYLRED
specific binding/interaction with IAP (BIR domain of XIAP) ([1]; second or third BIR domain of XIAP): specifically interact
